Key:
[1] = test system: glioblastoma brain cancer cell line DBTRG05MG; assay: Cytotoxicity assay (CCK8 viability), DBTRG05MG; assay type: cell-based; details: Homo sapiens, DBTRG-05MG, DBTRG05MG cells, 18 hours drug incubation, 1% FBS media
Protocol: (§1) Cytoxocity assay: Cells were seeded on a 96 well polystyrene plate in full serum media at a density of 75,000 cells per milliliter, 100 μL per well. Plates were incubated at 37° C. and 5% CO2 for 24 hours to allow cell attachment. Drug solutions were prepared in DMSO at 100× concentration and mixed 1:100 in 1% FBS media to yield the desired concentration. Drug-media mixtures were vortexed immediately prior to administration to cells. Full serum media was removed and replaced with drug-media mixtures and incubated for 18 hours. 10 μL of Cell Counting Kit 8 (CCK8, Dojindo# CK04-11) was added to each well to colormetrically assess viability. After 2-4 hours of incubation with the CCK8 dye, absorbance was read at 450 nm by a BioTek Synergy 2 plate reader.
(§2) The cytotoxicity of selected compounds against the glioblastoma brain cancer cell line LN-229 is depicted in Table 1.

[2] = test system: glioblastoma brain cancer cell line LN-229; assay: Cytotoxicity assay (CCK8 viability), LN-229; assay type: cell-based; details: Homo sapiens, LN-229 cells, 18 hours drug incubation, 1% FBS media
Protocol: as §1, §2

Row | Structure (SMILES) | EC50 [1] [µM] | EC50 [2] [µM]
1 | CC(C)(c1cc(O)c(-c2cc(Cl)cc(Cl)c2)c(O)n1)C1CCCCC1 [Compound 8b, 6-(2-Cyclohexylpropan-2-yl)-3-(3,5-dichlorophenyl)pyridine-2,4-diol] | 9.8 | 5.9
2 | CC(C)(c1ccccc1)c1cc(O)c(-c2cc(Cl)cc(Cl)c2)c(O)n1 [Compound 8c, 3-(3,5-Dichlorophenyl)-6-(2-phenylpropan-2-yl)pyridine-2,4-diol] | 33.6 | 29.2
3 | CCCCCCC(C)(C)c1cc(O)c(-c2cc(Cl)cc(Cl)c2)c(O)n1 [Compound 8e, 3-(3,5-dichlorophenyl)-6-(2-methyloctan-2-yl)pyridine-2,4-diol] | 4.1 | 1.6
4 | Cc1cccc(-c2c(O)cc(C(C)(C)C3CCCCC3)nc2O)c1 [Compound 8f, 6-(2-Cyclohexylpropan-2-yl)-3-m-tolylpyridine-2,4-diol] |  | 71.1
5 | CCCCCCC(C)(C)c1nc(O)c(-c2cccc(C)c2)c(O)n1 [Compound 8h, 2-(2-Methyloctan-2-yl)-5-m-tolylpyrimidine-4,6-diol] | 29.2 | 24.6
6 | CCCCCCC(C)(C)c1cc(O)c(-c2ccccc2)c(O)n1 [Compound 8j, 6-(2-Methyloctan-2-yl)-3-phenylpyridine-2,4-diol] | 55.7 | 52.6
7 | CCCCCCC(C)(C)c1cc(O)c(-c2cccc(OC)c2)c(O)n1 [Compound 8m, 3-(3-Methoxyphenyl)-6-(2-methyloctan-2-yl)pyridine-2,4-diol] | 56 | 41.7
8 | CCCCCCC(C)(C)c1cc(O)c(Cc2ccccc2)c(O)n1 [Compound 8n, 3-Benzyl-6-(2-methyloctan-2-yl)pyridine-2,4-diol] | 25.2 | 13.1

Reference: US8809373B2, “Pyridine non-classical cannabinoid compounds and related methods of use” (priority 2008, dated 2014)
